Assays:
[1] = test system: Aspartate Aminotransferase; experiment: AST levels in PALACE 1, 2, and 3 clinical studies; assay type: in vivo, human
Source text: Apremilast was studied in Phase 3 trials in both psoriatic arthritis and psoriasis patient populations and a Phase 2 trial in rheumatoid arthritis patients on background methotrexate. […] The improvement in mild baseline liver function test abnormalities has been observed with apremilast daily use without any prescribed changes in physical activity, social or dietary habits. The majority of the patient populations in both the psoriatic arthritis and psoriasis studies were overweight with the mean BMI for subjects greater than or equal to 30, more than half were consuming alcoholic beverages regularly, approximately 60% were taking methotrexate at an average dose of […], and 70% were using non-steroidal anti-inflammatory drugs (NSAIDs). […] During the course of the study, there was observed a higher proportion of subjects in the apremilast treatment groups (both 20 mg BID and 30 mg BID) with normal LFTs (i.e. normal levels of ALT and AST) at subsequent placebo-controlled study visits at week 4, week 16, and week 24 (See Tables 1 to 10 from PALACE 1, 2, and 3 studies).

Alanine Aminotransferase = experiment: ALT levels in RA-002 (rheumatoid arthritis); assay type: in vivo, human; conditions: for ALT High to Normal, percent of patients / ALT Net Benefit / ALT Normal to High, percent of patients: end of treatment (week 16); for ALT High, % of patients / ALT Low, % of patients / ALT Normal, % of patients: Week 16
Protocol: The improvement in mild baseline liver function test abnormalities has been observed with apremilast daily use without any prescribed changes in physical activity, social or dietary habits. During the course of the study, there was observed a higher proportion of subjects in the 30 mg BID apremilast treatment group with normal LFTs at subsequent placebo-controlled study visits at week 16. See Tables 17 to 24 from RA-002 studies.

TNF-α = experiment: Inhibition of TNF-α production in a mouse model; assay type: in vivo
Source text: The test methods were as described in WO 03/080049; Muller et al., J. Med. Chem., 1996, 39:3238; and Muller et al., Bioorg. Med. Chem. Lett., 1999, 9:1625-30.

[2] = Baseline Normal, Week 24, 20 mg BID
[3] = Baseline Normal, Week 24, 30 mg BID
[4] = Baseline Total, Week 24, 20 mg BID
[5] = Baseline Total, Week 24, 30 mg BID

**Q.** Which results are given for `CCOc1cc([C@@H](CS(C)(=O)=O)N2C(=O)c3cccc(NC(C)=O)c3C2=O)ccc1OC` [Apremilast, (+)-2-[1-(3-ethoxy-4-methoxyphenyl)-2-methylsulfonylethyl]-4-acetylaminoisoindoline-1,3-dione]?
**A.** AST Normal, % of patients ([1]; Baseline High, Week 24, 30 mg BID): 73.3%; AST High, % of patients [1, 2]: 5.0%; AST Low, % of patients [1, 2]: 0.0%; AST Normal, % of patients [1, 2]: 95.0%; AST High, % of patients [1, 3]: 3.8%; AST Low, % of patients [1, 3]: 0.0%; AST Normal, % of patients [1, 3]: 96.2%; AST High, % of patients [1, 4]: 6.8%; AST Low, % of patients [1, 4]: 0.0%; AST Normal, % of patients [1, 4]: 93.2%; AST High, % of patients [1, 5]: 5.4%; AST Low, % of patients [1, 5]: 0.0%; AST Normal, % of patients [1, 5]: 94.6%; Baseline High AST: High % ([1]; Week 4, 20 mg BID): 38.6%; Baseline High AST: Normal % ([1]; Week 4, 20 mg BID): 61.4%; Baseline High AST: Normal % difference from Placebo ([1]; Week 4, 20 mg BID): 9%; Baseline High AST: High % ([1]; Week 4, 30 mg BID): 42.2%; Baseline High AST: Normal % ([1]; Week 4, 30 mg BID): 57.8%; Baseline High AST: Normal % difference from Placebo ([1]; Week 4, 30 mg BID): 5.4%; Baseline High AST: High % ([1]; Week 16, 20 mg BID): 38.5%; Baseline High AST: Normal % ([1]; Week 16, 20 mg BID): 61.5%; Baseline High AST: Normal % difference from Placebo ([1]; Week 16, 20 mg BID): −4.3%; decrease in the number of patients with normal levels of AST compared to the placebo group ([1]; Week 16, 20 mg BID, stated as a decrease): 4.3%; Baseline High AST: High % ([1]; Week 16, 30 mg BID): 25.0%; Baseline High AST: Normal % ([1]; Week 16, 30 mg BID): 75.0%; Baseline High AST: Normal % difference from Placebo ([1]; Week 16, 30 mg BID): 9.2%; Baseline High AST: High % ([1]; Week 24, 20 mg BID): 44.4%; Baseline High AST: Normal % ([1]; Week 24, 20 mg BID): 55.6%; Baseline High AST: Normal % difference from Placebo ([1]; Week 24, 20 mg BID): 5.6%; Baseline High AST: High % ([1]; Week 24, 30 mg BID): 24.2%; Baseline High AST: Normal % ([1]; Week 24, 30 mg BID): 75.8%; Baseline High AST: Normal % difference from Placebo ([1]; Week 24, 30 mg BID): 25.8%; ALT High to Normal, percent of patients (Alanine Aminotransferase; 20 BID): 25.0%; ALT Net Benefit (Alanine Aminotransferase; 20 BID): 14.3%; ALT Normal to High, percent of patients (Alanine Aminotransferase; 20 BID): 4.5%; ALT High to Normal, percent of patients (Alanine Aminotransferase; 30 BID): 66.7%; ALT Net Benefit (Alanine Aminotransferase; 30 BID): 40.0%; ALT Normal to High, percent of patients (Alanine Aminotransferase; 30 BID): 3.1%; ALT High to Normal, Difference between Placebo and APR 30 BID (Alanine Aminotransferase; 30 BID, week 16): 0%; ALT Net Benefit, Difference between Placebo and APR 30 BID (Alanine Aminotransferase; 30 BID, week 16): −26.7%; ALT Normal to High, Difference between Placebo and APR 30 BID (Alanine Aminotransferase; 30 BID, week 16): 3.1%; ALT High to Normal, Difference between Placebo and APR 30 BID (Alanine Aminotransferase; 30 BID, week 16, listed as APR): 0.0%; ALT High, % of patients (Alanine Aminotransferase; Baseline High, 20 mg BID): 75.0%; ALT Low, % of patients (Alanine Aminotransferase; Baseline High, 20 mg BID): 0.0%; ALT Normal, % of patients (Alanine Aminotransferase; Baseline High, 20 mg BID): 25.0%; ALT High, % of patients (Alanine Aminotransferase; Baseline High, 30 mg BID): 33.3%; ALT Low, % of patients (Alanine Aminotransferase; Baseline High, 30 mg BID): 0.0%; ALT Normal, % of patients (Alanine Aminotransferase; Baseline High, 30 mg BID): 66.7%; ALT High, % of patients (Alanine Aminotransferase; Baseline Normal, 20 mg BID): 4.5%; ALT Low, % of patients (Alanine Aminotransferase; Baseline Normal, 20 mg BID): 0.0%; ALT Normal, % of patients (Alanine Aminotransferase; Baseline Normal, 20 mg BID): 95.5%; ALT High, % of patients (Alanine Aminotransferase; Baseline Normal, 30 mg BID): 3.1%; ALT Low, % of patients (Alanine Aminotransferase; Baseline Normal, 30 mg BID): 0.0%; ALT Normal, % of patients (Alanine Aminotransferase; Baseline Normal, 30 mg BID): 96.9%; ALT High, % of patients (Alanine Aminotransferase; Baseline Total, 20 mg BID): 8.6%; ALT Low, % of patients (Alanine Aminotransferase; Baseline Total, 20 mg BID): 0.0%; ALT Normal, % of patients (Alanine Aminotransferase; Baseline Total, 20 mg BID): 91.4%; ALT High, % of patients (Alanine Aminotransferase; Baseline Total, 30 mg BID): 4.5%; ALT Low, % of patients (Alanine Aminotransferase; Baseline Total, 30 mg BID): 0.0%; ALT Normal, % of patients (Alanine Aminotransferase; Baseline Total, 30 mg BID): 95.5%; EC50, TNF-α production (TNF-α): 0.05 mg/kg

Reference: patent publication US10300042B2, “Apremilast for the treatment of a liver disease or a liver function abnormality” (Celgene Corporation, priority 2014, dated 2019)
